Target: T1, KRAS G12C 1-169, his-tagged protein, GDP-loaded (Homo sapiens, UniProt P01116, G12C)
T1 construct: KRAS G12C 1-169, his-tagged protein, GDP-loaded; His tag
Assay: Biochemical assay: covalent modification of KRAS G12C, analysed by mass spectrometry (RapidFire/TOF or Q-Exactive); further: time not given here
Assay type: binding
Settings: Modification activity, modification percentage from MS peak intensities
Procedure, shortened: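 Covalent adduct formation was quantified by intact-protein mass spectrometry, either TOF or C4 LC-Q Exactive Plus, as percent modified versus unmodified protein after deconvolution. Compounds at 8 or 32 μM final were incubated with 0.5 or 2 μM GDP-bound KRAS G12C(1-169)-His in Hepes/NaCl/MgCl2 buffer before acid quench.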

**Q.** For C=CC(=O)N1CC2(CCN(c3nc(CCN4CCCC4)nc(-c4c(C)ccc5[nH]ncc45)c3C#N)C2)C1 [Compound I-183, 4-(2-acryloyl-2,6-diazaspiro[3.4]octan-6-yl)-6-(5-methyl-1H-indazol-4-yl)-2-(2-(pyrrolidin-1-yl)ethyl)pyrimidine-5-carbonitrile], which Binding % is on record?
**A.** + (+ indicates binding activity greater than 0% and up to 50%)

**Q.** For C=CC(=O)N1CC2(CCN(c3c(OCCCN(C)C)ncc(-c4c(C)ccc5cnn(C)c45)c3C#N)C2)C1 [Compound I-184, 3-(2-acryloyl-2,6-diazaspiro[3.4]octan-6-yl)-5-(1,6-dimethyl-1H-indazol-7-yl)-2-(3-(dimethylamino)pro-poxy)isonicotinonitrile], which Binding % is on record?
**A.** + (+ indicates binding activity greater than 0% and up to 50%)

**Q.** With C=CC(=O)N1CC2(CCN(c3nc(OC[C@@H]4CCCN4C)cc(-c4c(C)ccc5[nH]ncc45)c3C#N)C2)C1 [Compound I-185, 2-(2-acryloyl-2,6-diazaspiro[3.4]octan-6-yl)-4-(5-methyl-1H-indazol-4-yl)-6-(((S)-1-methylpyrrolidin-2-yl)methoxy)nicotino-nitrile] as the molecule, how does the Binding % read?
**A.** +++ (+++ indicates binding activity greater than 85%)

**Q.** How did the Binding % turn out when C=CC(=O)N1CC2(CCN(c3nc(OCc4ccc(N5CCN(C)CC5)cn4)nc(-c4c(C)ccc5cnn(C)c45)c3C#N)C2)C1 [Compound I-186, 4-(2-acryloyl-2,6-diazaspiro[3.4]octan-6-yl)-6-(1,6-dimethyl-1H-indazol-7-yl)-2-((5-(4-methylpiperazin-1-yl)pyridin-2-yl)methoxy)pyrimidine-5-carbonitrile] was run?
**A.** + (+ indicates binding activity greater than 0% and up to 50%)

**Q.** For C=CC(=O)N1CC2(CCN(c3nc(N4CC(N(C)C)C4)cc(-c4c(C)ccc5[nH]ncc45)c3C#N)C2)C1 [Compound I-187, 2-(2-acryloyl-2,6-diazaspiro[3.4]octan-6-yl)-6-(3-(dimethylamino)azeti-din-1-yl)-4-(5-methyl-1H-indazol-4-yl)nicotinonitrile], which Binding % is on record?
**A.** + (+ indicates binding activity greater than 0% and up to 50%)

**Q.** With C=CC(=O)N1CC2(CCN(c3nc(N4CCC(N5CCN(C)[C@H](C)C5)CC4)nc(-c4c(C)ccc5[nH]ncc45)c3C#N)C2)C1 [Compound I-188, 4-(2-acryloyl-2,6-diazaspiro[3.4]octan-6-yl)-2-(4-((R)-3,4-dimethylpiperazin-1-yl)piperidin-1-yl)-6-(5-methyl-1H-indazol-4-yl)pyrimidine-5-carbonitrile] as the molecule, how does the Binding % read?
**A.** +++ (+++ indicates binding activity greater than 85%)

**Q.** How did the Binding % turn out when C=CC(=O)N1CC2(CCN(c3nc(-c4c(C)ccc5[nH]ncc45)nc(N4CCOCC4)n3)C2)C1 [Compound I-189, 1-(6-(4-(5-methyl-1H-indazol-4-yl)-6-morpholino-1,3,5-triazin-2-yl)-2,6-diazaspiro[3.4]octan-2-yl)prop-2-en-1-one] was run?
**A.** + (+ indicates binding activity greater than 0% and up to 50%)

**Q.** How did the Binding % turn out when C=CC(=O)N1CC2(CCN(c3nc(N4CCOCC4)nc(-c4c(C)ccc5[nH]ncc45)c3C#CC3CC3)C2)C1 [Compound I-190, 1-(6-(5-(cyclopropylethynyl)-6-(5-methyl-1H-indazol-4-yl)-2-morpholinopyrimidin-4-yl)-2,6-diazaspiro[3.4]octan-2-yl)prop-2-en-1-one] was run?
**A.** + (+ indicates binding activity greater than 0% and up to 50%)

**Q.** With C=CC(=O)N1CC2(CCN(c3nc(N4CCC(N5CCN(C)[C@@H](C)C5)CC4)nc(-c4c(C)ccc5[nH]ncc45)c3C#N)C2)C1 [Compound I-191, 4-(2-acryloyl-2,6-diazaspiro[3.4]octan-6-yl)-2-(4-((S)-3,4-dimethylpiperazin-1-yl)piperidin-1-yl)-6-(5-methyl-1H-indazol-4-yl)pyrimidine-5-carbonitrile] as the molecule, how does the Binding % read?
**A.** +++ (+++ indicates binding activity greater than 85%)

**Q.** Which Binding % does the source give for C=C(C)C(=O)N1CC2(CCN(c3nc(N4CCOCC4)nc(-c4c(C)ccc5[nH]ncc45)c3C#N)C2)C1 [Compound I-192, 4-(2-methacryloyl-2,6-diazaspiro[3.4]octan-6-yl)-6-(5-methyl-1H-indazol-4-yl)-2-morpholinopyrimidine-5-carbonitrile] here?
**A.** + (+ indicates binding activity greater than 0% and up to 50%)

**Q.** Which Binding % does the source give for C=CC(=O)N1CC2(CCN(c3nc(N4CCC(N5CCN(C)[C@@H](C)C5)CC4)nc(-c4c(C)ccc5cnn(C)c45)c3C#N)C2)C1 [Compound I-193, 4-(2-acryloyl-2,6-diazaspiro[3.4]octan-6-yl)-6-(1,6-dimethyl-1H-indazol-7-yl)-2-(4-((S)-3,4-dimethylpiperazin-1-yl)piperidin-1-yl)pyrimidine-5-carbonitrile] here?
**A.** +++ (+++ indicates binding activity greater than 85%)

**Q.** C=CC(=O)N1CC2(CCN(c3nc(N4CCC(N5CCN(C)C6(CC6)C5)CC4)nc(-c4c(C)ccc5[nH]ncc45)c3C#N)C2)C1 [Compound I-194, 4-(2-acryloyl-2,6-diazaspiro[3.4]octan-6-yl)-6-(5-methyl-1H-indazol-4-yl)-2-(4-(4-methyl-4,7-diazaspiro[2.5]octan-7-yl)piperidin-1-yl)pyrimidine-5-carbonitrile] was tested. Which Binding % did it give?
**A.** +++ (+++ indicates binding activity greater than 85%)

**Q.** With C=CC(=O)N1CC2(CCN(c3nc(C4CCOCC4)nc(-c4c(C)ccc5[nH]ncc45)c3C#N)C2)C1 [Compound I-196, 4-(2-acryloyl-2,6-diazaspiro[3.4]octan-6-yl)-6-(5-methyl-1H-indazol-4-yl)-2-(tetrahydro-2H-pyran-4-yl)pyrimidine-5-carbonitrile] as the molecule, how does the Binding % read?
**A.** ++ (++ indicates binding activity from 50 to 85%)

**Q.** With C=CC(=O)N1CC2(CCN(c3nc(N4CCC(N5CCN(C)C6(CC6)C5)CC4)nc(-c4c(C)ccc5cnn(C)c45)c3C#N)C2)C1 [Compound I-197, 4-(2-acryloyl-2,6-diazaspiro[3.4]octan-6-yl)-6-(1,6-dimethyl-1H-indazol-7-yl)-2-(4-(4-methyl-4,7-diazaspiro[2.5]octan-7-yl)piperidin-1-yl)pyrimidine-5-carbonitrile] as the molecule, how does the Binding % read?
**A.** +++ (+++ indicates binding activity greater than 85%)

**Q.** Which Binding % does the source give for C=CC(=O)N1CC2(CCN(c3nc(N4CCC(N5CCN(C)[C@H](C)C5)CC4)nc(-c4c(C)ccc5cnn(C)c45)c3C#N)C2)C1 [Compound I-198, 4-(2-acryloyl-2,6-diazaspiro[3.4]octan-6-yl)-6-(1,6-dimethyl-1H-indazol-7-yl)-2-(4-((R)-3,4-dimethylpiperazin-1-yl)piperidin-1-yl)pyrimidine-5-carbonitrile] here?
**A.** +++ (+++ indicates binding activity greater than 85%)

**Q.** How did the Binding % turn out when C=CC(=O)N1CC2(CCN(c3c(OC[C@@H]4CCCN4C)ncc(-c4c(C)ccc5[nH]ncc45)c3C#N)C2)C1 [Compound I-199, 3-(2-acryloyl-2,6-diazaspiro[3.4]octan-6-yl)-5-(5-methyl-1H-indazol-4-yl)-2-(((S)-1-methylpyrrolidin-2-yl)methoxy)isonicoti-nonitrile] was run?
**A.** ++ (++ indicates binding activity from 50 to 85%)

**Q.** How did the Binding % turn out when Cc1ccc2[nH]ncc2c1-c1nc(N2CCOCC2)nc(N2CCC3(CN(C(=O)/C=C/CN4CCC4)C3)C2)c1C#N [Compound I-200, (E)-4-(2-(4-(azetidin-1-yl)but-2-enoyl)-2,6-diazaspiro[3.4]octan-6-yl)-6-(5-methyl-1H-indazol-4-yl)-2-morpholinopyrimidine-5-carbonitrile] was run?
**A.** ++ (++ indicates binding activity from 50 to 85%)

**Q.** For C=CC(=O)N1CC2(CCN(c3nc(C(=O)N4CCOCC4)nc(-c4c(C)ccc5[nH]ncc45)c3C#N)C2)C1 [Compound I-201, 4-(2-acryloyl-2,6-diazaspiro[3.4]octan-6-yl)-6-(5-methyl-1H-indazol-4-yl)-2-(morpholine-4-carbonyl)pyrimidine-5-carbonitrile], which Binding % is on record?
**A.** + (+ indicates binding activity greater than 0% and up to 50%)

**Q.** C=CC(=O)N1CC2(CCN(c3nc(C(N)=O)nc(-c4c(C)ccc5[nH]ncc45)c3C#N)C2)C1 [Compound I-202, 4-(2-acryloyl-2,6-diazaspiro[3.4]octan-6-yl)-5-cyano-6-(5-methyl-1H-indazol-4-yl)pyrimidine-2-carboxamide] was tested. Which Binding % did it give?
**A.** + (+ indicates binding activity greater than 0% and up to 50%)

**Q.** Which Binding % does the source give for C=CC(=O)N1CC2(CCN(c3nc(C(=O)N4CCN(C)CC4)nc(-c4c(C)ccc5[nH]ncc45)c3C#N)C2)C1 [Compound I-203, 4-(2-acryloyl-2,6-diazaspiro[3.4]octan-6-yl)-6-(5-methyl-1H-indazol-4-yl)-2-(4-methylpiperazine-1-carbonyl)pyrimidine-5-carbonitrile] here?
**A.** + (+ indicates binding activity greater than 0% and up to 50%)

**Q.** Which Binding % does the source give for Cc1ccc2[nH]ncc2c1-c1nc(OC[C@@H]2CCCN2C)nc(N2CCC3(CN(C(=O)/C=C/CN(C)C)C3)C2)c1C#N [Compound I-204, 4-(2-((E)-4-(dimethylamino)but-2-enoyl)-2,6-diazaspiro[3.4]octan-6-yl)-6-(5-methyl-1H-indazol-4-yl)-2-(((S)-1-methylpyrrolidin-2-yl)methoxy)pyrimidine-5-carbonitrile] here?
**A.** + (+ indicates binding activity greater than 0% and up to 50%)

**Q.** For Cc1ccc2[nH]ncc2c1-c1nc(OC[C@@H]2CCCN2C)nc(N2CCC3(CN(C(=O)/C=C/CN4CCC4)C3)C2)c1C#N [Compound I-205, 4-(2-((E)-4-(azetidin-1-yl)but-2-enoyl)-2,6-diazaspiro[3.4]octan-6-yl)-6-(5-methyl-1H-indazol-4-yl)-2-(((S)-1-methylpyrrolidin-2-yl)methoxy)pyrimidine-5-carbonitrile], which Binding % is on record?
**A.** + (+ indicates binding activity greater than 0% and up to 50%)

**Q.** With C=CC(=O)N1CC2(CCN(c3nc(N4CCOCC4)nc(-c4c(C)ccc5[nH]nc(C6CC6)c45)c3C#N)C2)C1 [Compound I-206, 4-(2-acryloyl-2,6-diazaspiro[3.4]octan-6-yl)-6-(3-cyclopropyl-5-methyl-1H-indazol-4-yl)-2-morpholinopyrimidine-5-carbonitrile] as the molecule, how does the Binding % read?
**A.** + (+ indicates binding activity greater than 0% and up to 50%)

— US12134620B2 (ARAXES PHARMA LLC, priority 2018, dated 2024)
